# Results reported in PubChem BioAssay AID330 (DTP/NCI, 2004).
# Toxic doses and inconclusive results are not listed.
# System: P388 leukemia ip, CD2F1 mice, survival T/C
# Experiment: NCI In Vivo Anticancer Drug Screen. Data for tumor model P388 Leukemia (intraperitoneal) in CD2F1 (CDF1) mice
# Details: endpoint: median survival time, higher = longer survival
# Outline: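 Mice carrying the transplanted tumor received test compound or vehicle. Survival was recorded in each group, and the value is the treated-group measurement divided by that of the vehicle-treated control group.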
# [1] = dose: 100.0 mg/kg/injection, schedule: Q01DX009 (ip), vehicle: Klucel (hydroxypropylcellulose) (HPC)
# [2] = dose: 100.0 mg/kg/injection, schedule: Q01DX009 (ip), vehicle: saline with Tween-80
# [3] = dose: 200.0 mg/kg/injection, schedule: Q01DX009 (ip), vehicle: Klucel (hydroxypropylcellulose) (HPC)
# [4] = dose: 200.0 mg/kg/injection, schedule: Q01DX009 (ip), vehicle: saline with Tween-80
# [5] = dose: 50.0 mg/kg/injection, schedule: Q01DX009 (ip), vehicle: saline with Tween-80
# [6] = dose: 100.0 mg/kg/injection, schedule: Q04DX003 (ip), vehicle: saline with Tween-80
# [7] = dose: 200.0 mg/kg/injection, schedule: Q04DX003 (ip), vehicle: saline with Tween-80
# [8] = dose: 400.0 mg/kg/injection, schedule: Q04DX003 (ip), vehicle: saline with Tween-80
compound,measurement,setting,value
CC(=O)/C=C/c1ccccc1,T/C,"dose: 25.0 mg/kg/injection, schedule: Q01DX009 (ip), vehicle: Klucel (hydroxypropylcellulose) (HPC)",103 % of control
same,T/C,"dose: 50.0 mg/kg/injection, schedule: Q01DX009 (ip), vehicle: Klucel (hydroxypropylcellulose) (HPC)",101 % of control
same,T/C,[1],101 % of control
same,T/C,[2],108 % of control
same,T/C,[3],103 % of control
same,T/C,[4],109 % of control
same,T/C,"dose: 400.0 mg/kg/injection, schedule: Q01DX009 (ip), vehicle: saline with Tween-80",119 % of control
same,T/C,"dose: 600.0 mg/kg/injection, schedule: Q01DX009 (ip), vehicle: saline with Tween-80",117 % of control
CNC1CC2OC(C)(C1OC)n1c3ccccc3c3c4c(c5c6ccccc6n2c5c31)C(=O)NC4 (centres undefined),T/C,"dose: 0.75 mg/kg/injection, schedule: Q01DX005 (ip), vehicle: water",120 % of control
same,T/C,"dose: 1.5 mg/kg/injection, schedule: Q01DX005 (ip), vehicle: water",90 % of control
CSC(=S)NN=C(c1ccccn1)c1ccccn1,T/C,"dose: 6.25 mg/kg/injection, schedule: Q01DX009 (ip), vehicle: saline with Tween-80",96 % of control
same,T/C,"dose: 12.5 mg/kg/injection, schedule: Q01DX009 (ip), vehicle: saline with Tween-80",99 % of control
same,T/C,"dose: 25.0 mg/kg/injection, schedule: Q01DX009 (ip), vehicle: saline with Tween-80",92 % of control
same,T/C,[2],91 % of control
same,T/C,[4],88 % of control
N#CC(c1ccccc1)c1nccc2ccccc12 (centres undefined),T/C,"dose: 100.0 mg/kg/injection, schedule: Q04DX002 (ip), vehicle: saline with Tween-80",99 % of control
same,T/C,"dose: 200.0 mg/kg/injection, schedule: Q04DX002 (ip), vehicle: saline with Tween-80",100 % of control
CCOc1c(N=Nc2ccccc2OC)c(-c2ccccc2)nn1C(=S)S,T/C,"dose: 50.0 mg/kg/injection, schedule: Q01DX005 (ip), vehicle: saline with Tween-80",102 % of control
same,T/C,"dose: 100.0 mg/kg/injection, schedule: Q01DX005 (ip), vehicle: saline with Tween-80",101 % of control
same,T/C,"dose: 200.0 mg/kg/injection, schedule: Q01DX005 (ip), vehicle: saline with Tween-80",108 % of control
NC(=O)C1CCCC12NC(=O)NC2=O (centres undefined),T/C,[1],90 % of control
same,T/C,[3],90 % of control
same,T/C,"dose: 400.0 mg/kg/injection, schedule: Q01DX009 (ip), vehicle: Klucel (hydroxypropylcellulose) (HPC)",100 % of control
CN1CCOC(c2ccccc2)c2ccsc2CC1 (centres undefined),T/C,"dose: 60.0 mg/kg/injection, schedule: Q01DX005 (ip), vehicle: saline with Tween-80",98 % of control
same,T/C,"dose: 120.0 mg/kg/injection, schedule: Q01DX005 (ip), vehicle: saline with Tween-80",93 % of control
CC(=S)NC(O)C(=O)c1ccccc1 (centres undefined),T/C,[5],121 % of control
Nc1cccc(NC=O)c1,T/C,"dose: 12.5 mg/kg/injection, schedule: Q04DX003 (ip), vehicle: saline with Tween-80",100 % of control
same,T/C,"dose: 25.0 mg/kg/injection, schedule: Q04DX003 (ip), vehicle: saline with Tween-80",110 % of control
same,T/C,"dose: 50.0 mg/kg/injection, schedule: Q04DX003 (ip), vehicle: saline with Tween-80",100 % of control
CCn1c(Cl)c(/C=N/NS(=O)(=O)c2ccc(C)cc2)c2cccc(/C=N\NS(=O)(=O)c3ccc(C)cc3)c21,T/C,"dose: 50.0 mg/kg/injection, schedule: Q01DX001 (ip), vehicle: Klucel (hydroxypropylcellulose) (HPC)",99 % of control
same,T/C,"dose: 100.0 mg/kg/injection, schedule: Q01DX001 (ip), vehicle: Klucel (hydroxypropylcellulose) (HPC)",96 % of control
Cc1ccc(S(=O)(=O)NC(=O)OC23COCN2COC3)cc1,T/C,[5],117 % of control
same,T/C,[2],122 % of control
CC1(C)CC(=O)C=C(OCCc2ccccc2)C1,T/C,[6],100 % of control
same,T/C,[7],100 % of control
same,T/C,[8],95 % of control
CN1C(=O)C(=C2C=C(c3ccccc3)C(C#N)(c3ccccc3)C(c3ccccc3)=C2)C(=O)N(C)C1=O (centres undefined),T/C,"dose: 50.0 mg/kg/injection, schedule: Q01DX005 (ip), vehicle: Klucel (hydroxypropylcellulose) (HPC)",106 % of control
same,T/C,"dose: 100.0 mg/kg/injection, schedule: Q01DX005 (ip), vehicle: Klucel (hydroxypropylcellulose) (HPC)",107 % of control
same,T/C,"dose: 200.0 mg/kg/injection, schedule: Q01DX005 (ip), vehicle: Klucel (hydroxypropylcellulose) (HPC)",101 % of control
C1CCC2(CC1)CSSC2,T/C,"dose: 6.25 mg/kg/injection, schedule: Q04DX002 (ip), vehicle: saline with Tween-80",101 % of control
same,T/C,"dose: 12.5 mg/kg/injection, schedule: Q04DX002 (ip), vehicle: saline with Tween-80",99 % of control
O=[N+]([O-])c1cccnc1Sc1ncccn1,T/C,[6],100 % of control
same,T/C,[7],100 % of control
same,T/C,[8],100 % of control
